Assay results as given in patent US20080161400A1, “USE OF FORMS OF PROPOFOL FOR TREATING DISEASES ASSOCIATED WITH OXIDATIVE STRESS” (XenoPort, Inc., priority 2006, published 2008).

How the values were obtained:
rats = experiment: Acute toxicity study in rats, single oral dose; assay type: in vivo
Description: Acute toxicity studies in rats were undertaken to assess the tolerance of a single oral dose of compound (2) formulated in water. […] Complete recovery from hypoactivity, sedation, and anesthesia occurred in all rats within about 8 hours after dose. Doses above about 1552 mg-eq/kg (about 800 mg-eq/kg of propofol) were not tested.

male beagle dogs = experiment: Acute toxicity study in dogs, single oral dose; assay type: in vivo
Description: Acute toxicity studies were also performed by orally administering a single dose of compound (2) formulated in water to groups of male beagle dogs at doses from about 25 mg-eq/kg to about 150 mg-eq/kg.

male rats = experiment: Multiple dose study in rats, five days, oral gavage once a day; assay type: in vivo; settings: 49 to 97 mg-eq/kg orally once a day for five days
Description: Multiple dose studies in rats were performed by orally administering compound (2) formulated in water to groups of male rats at doses of 49 mg-eq/kg to 97 mg-eq/kg for a period of five days, by oral gavages administered once a day.

[1] = orally administered as a homogeneous liquid suspension, relative to an equivalent intravenous dose of propofol; cited from earlier work
[2] = oral dosing, rats; cited from earlier work

SMILES	Time to complete recovery from hypoactivity, sedation, and anesthesia after dose (rats; all rats, single oral dose) [h]	Tolerance of a single oral dose (rats; rats, about 49 mg-eq/kg to about 1552 mg-eq/kg of administered compound, in water)	Hypoactivity (rats; rats, single oral dose about 49 up to about 388 mg-eq/kg, within about 30 minutes of dose, maintained up to 4 hours post dose)	Sedation (rats; rats, single oral dose about 582 up to about 970 mg-eq/kg, within about 1.5 hours of dose, lasted up to 4 hours post dose)	Anesthesia (rats; rats, single oral dose about 1164 up to about 1552 mg-eq/kg, within about 1 hour of dose, lasted up to about 2 hours post dose)	Tolerance of a single oral dose (male beagle dogs; about 25 mg-eq/kg to about 150 mg-eq/kg, in water)	Sedation or anesthesia (male beagle dogs; single oral dose about 25 to about 150 mg-eq/kg)	Adverse effects (male rats)	Sedation or anesthesia (male rats)	Tolerance of multiple doses (male rats)	Oral bioavailability [1]	Administered drug undergoing first pass metabolism [2]
CC(C)c1cccc(C(C)C)c1OC(=O)OC[C@H](N)C(=O)O (stereo in doubt) [compound (2), 2-amino-3-(2,6-diisopropyl-phenoxycarbonyloxy)-propanoic acid]	≤ 8	well tolerated	Transient hypoactivity was observed	Sedation was observed	Anesthesia was observed	well tolerated	No sedation or anesthesia was observed	No adverse effects were observed	No sedation or anesthesia was observed	well tolerated		
CC(C)c1cccc(C(C)C)c1O [propofol, 2,6-diisopropylphenol]											less than 5%	approximately 90%
